According to article PMC5983544, “Muscarinic M5 receptors modulate ethanol seeking in rats” (Neuropsychopharmacology, 2018):

Key:
[1] = tested on: ethanol-preferring (iP) rats; assay: Ethanol self-administration after bilateral microinjection into dorsolateral (DL) striatum; assay type: in vivo, rat; conditions: intra-DL striatum, 105 pmol/hemisphere
Excerpt: (§1) Male iP rats (n = 14) were trained to self-administer 10% (v/v) ethanol via lever presses under FR3 operant conditions for approximately 12 weeks, in the presence of a 1-s light conditioned stimulus (CS+) occurring when the ethanol solution was delivered and an olfactory cue (S+ cue; one drop of vanilla essence, placed directly below the ethanol-paired (active) lever), as previously described, followed by surgery and testing. […] Rats were then given 7 days of ethanol self-administration before receiving the alternate treatment in a counterbalanced manner. For full details refer to Supplementary material.
(§2) Microinjections were performed as previously described; for full details see Supplementary material.

[2] = tested on: hM5 mAChR; conditions: cited from earlier work
[3] = target: T1, rat M1 mAChR (Rattus norvegicus, UniProt P08482); assay: ACh-stimulated IP accumulation (IP-One) in CHO-rM1 cells; assay type: cell-based
T1 construct: host or cells: FlpIn CHO cells (Invitrogen)
T1 sequence (P08482 1-460): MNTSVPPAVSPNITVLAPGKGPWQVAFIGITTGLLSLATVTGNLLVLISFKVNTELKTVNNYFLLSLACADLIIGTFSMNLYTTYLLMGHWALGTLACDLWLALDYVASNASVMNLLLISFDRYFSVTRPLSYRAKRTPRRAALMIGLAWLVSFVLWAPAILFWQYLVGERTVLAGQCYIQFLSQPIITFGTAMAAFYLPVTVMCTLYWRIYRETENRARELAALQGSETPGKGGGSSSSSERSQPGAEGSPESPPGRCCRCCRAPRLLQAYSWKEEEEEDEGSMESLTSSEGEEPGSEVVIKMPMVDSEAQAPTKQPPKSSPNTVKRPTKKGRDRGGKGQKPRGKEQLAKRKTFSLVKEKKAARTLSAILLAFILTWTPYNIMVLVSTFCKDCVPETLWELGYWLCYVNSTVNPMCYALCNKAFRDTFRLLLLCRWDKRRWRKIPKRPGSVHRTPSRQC
Description: (§3) The IP-One assay kit (Cisbio) was used for the direct quantitative measurement of inositol phosphate (IP) accumulation in CHO-rM1, CHO-rM3 or CHO-rM5 cells, as described previously. The CHO-hCB1 pERK1/2 assays were performed as described in ref [24].

[4] = tested on: ethanol-preferring (iP) rats; assay: Cue-induced reinstatement of ethanol seeking; assay type: in vivo, rat; conditions: 3 × 30 mg/kg p.o.
Description: A separate cohort of rats (n = 11) underwent 12 weeks of operant ethanol (10% v/v) self-administration followed by extinction training, where lever presses had no programmed consequences. Extinction occurred in the absence of CS+ and S+ cues. […] Subsequently, rats were tested for cue-induced reinstatement by re-introduction of the ethanol-paired CS+ and S+ cues, but in the absence of reward delivery. Rats were then re-extinguished and submitted to a second reinstatement session with the counterbalanced treatment.

[5] = target: T2, rat M2 mAChR (Rattus norvegicus, UniProt P10980); assay: [3H]NMS equilibrium binding in whole CHO-rM2 cells; conditions: rM2, [3H]NMS binding
T2 construct: host or cells: FlpIn CHO cells (Invitrogen)
T2 sequence (P10980 1-466): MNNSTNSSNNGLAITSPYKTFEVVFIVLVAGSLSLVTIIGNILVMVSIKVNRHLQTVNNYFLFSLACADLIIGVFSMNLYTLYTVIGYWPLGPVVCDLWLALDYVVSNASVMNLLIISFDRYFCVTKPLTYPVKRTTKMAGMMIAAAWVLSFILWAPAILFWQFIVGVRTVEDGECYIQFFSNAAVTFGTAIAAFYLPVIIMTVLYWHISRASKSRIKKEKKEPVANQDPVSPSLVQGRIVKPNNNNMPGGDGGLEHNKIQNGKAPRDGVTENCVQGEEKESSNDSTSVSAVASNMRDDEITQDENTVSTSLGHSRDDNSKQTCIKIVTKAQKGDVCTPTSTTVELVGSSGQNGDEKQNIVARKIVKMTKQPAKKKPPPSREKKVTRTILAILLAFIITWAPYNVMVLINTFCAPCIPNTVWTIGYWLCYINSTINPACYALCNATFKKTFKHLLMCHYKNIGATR
Description: (§4) Rat mAChR subtypes (rM1–rM5; Origene) and human cannabinoid 1 receptor (hCB1; ref. [24]) constructs were isogenically integrated into FlpIn CHO cells (Invitrogen) and cells were selected in the presence of […] hygromycin B at 37 °C, 5% CO2, as previously described for the human M1 mAChR [25]. All cells were sub-cultured and seeded as previously described for the CHO-hM5 cells.
(§5) [^3H]NMS equilibrium binding assays in CHO-rM1 to CHO-rM5 cells were performed as previously described for CHO-hM5 cells. For [^35S]GTPγS binding, CHO-rM2 and CHO-rM4 cell membranes were prepared as described in Supplementary information. Membrane [^35S]GTPγS binding was performed as described in ref [26]., except GDP and [^35S]GTPγS concentrations were 1 μM and 0.3 nM, respectively. [^3H](+)-pentazocine binding was performed as described in ref. [27].

[6] = tested on: ethanol-preferring (iP) rats; assay: Ethanol self-administration after bilateral microinjection into dorsomedial (DM) striatum; assay type: in vivo, rat; conditions: intra-DM striatum, 105 pmol/hemisphere
Excerpt: as §1, §2
There was a main effect of lever (F(1, 15) = 59.4, P < 0.0001) but no effect of treatment (F(1, 15) = 0.22, P = 0.65) (Fig. 5b).

[7] = target: T3, human cannabinoid 1 receptor (hCB1) (Homo sapiens, UniProt P21554); assay: CHO-hCB1 ERK1/2 phosphorylation assay; assay type: cell-based
T3 construct: expressed in transfected cells; host or cells: FlpIn CHO cells (Invitrogen)
Description: as §4, §3
Sigma-1 data are expressed as a percentage of specific [^3H]-(+)-pentazocine binding; ERK1/2 phosphorylation data are expressed percentage of the response to 10% FBS. Data represent the mean ± S.E.M. of 5-7 independent experiments performed in duplicate or triplicate.

[8] = target: T2, rat M2 mAChR; assay: ACh-stimulated [35S]GTPγS binding in CHO-rM2 cell membranes; assay type: biochemical; conditions: rM2, [35S]GTPγS binding
Description: as §5

T3 sequence (P21554 whole entry): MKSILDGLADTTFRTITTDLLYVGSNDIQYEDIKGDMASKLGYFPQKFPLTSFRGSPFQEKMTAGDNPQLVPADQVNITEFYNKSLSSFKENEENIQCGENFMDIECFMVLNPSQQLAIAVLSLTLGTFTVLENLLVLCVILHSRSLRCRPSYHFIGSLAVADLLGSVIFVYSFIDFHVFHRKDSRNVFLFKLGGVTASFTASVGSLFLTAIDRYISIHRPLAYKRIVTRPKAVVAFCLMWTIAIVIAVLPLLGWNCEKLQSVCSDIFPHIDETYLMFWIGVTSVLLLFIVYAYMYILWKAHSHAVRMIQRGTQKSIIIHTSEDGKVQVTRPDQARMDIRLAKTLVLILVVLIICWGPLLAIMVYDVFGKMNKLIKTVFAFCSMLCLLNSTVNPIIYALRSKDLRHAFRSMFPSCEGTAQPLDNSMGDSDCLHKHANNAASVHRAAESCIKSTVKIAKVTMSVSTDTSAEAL

effect on ACh potency [3]: no significant effects
effect on ACh affinity [5]: no significant effects
effect in ERK1/2 phosphorylation assays ([7]; CHO-hCB1, concentrations up to 10 μM): no apparent effect
agonist activity, ERK1/2 phosphorylation ([7]; FlpIn-CHO hCB1, agonist mode): no agonist activity
inhibition of WIN 55212-2 (1µM)-stimulated ERK 1/2 phosphorylation ([7]; FlpIn-CHO hCB1, antagonist mode): failed to inhibit
effect on ACh potency [8]: no significant effects
SMILES: O=C(c1ccc(F)c(F)c1)N1CCN2C(=O)c3ccccc3[C@@]12c1ccc(Cl)cc1 [ML375, (S)-9b-(4-chlorophenyl)-1-(3,4-difluorobenzoyl)-2,3-dihydro-1H-imidazo[2,1-a]isoi ndol-5(9bH)-one]
responding for ethanol vs vehicle ([1]; P = 0.011): significantly reduced responding for ethanol
responding for water vs vehicle ([1]; P > 0.99): no difference
functional affinity pKB [2]: 6.22
cue-induced reinstatement of ethanol seeking (active lever) vs vehicle ([4]; P = 0.015): significantly attenuated
responding for the previously water-paired lever vs vehicle ([4]; P > 0.99): no differences
ethanol responding vs vehicle [6]: did not affect ethanol responding
